Measurements published in article PMC7615677 (Science translational medicine, 2023).
pEC50: −log10 of the molar value.

What was measured:
CaV1.2 = CaV1.2 (Homo sapiens, UniProt Q13936); assay: in vitro
L. donovani = assay: Leishmania intramacrophage in vitro assay; type: cell-based
Procedure: A drug incubation period of 96 h was applied, and cells were stained with Giemsa for microscopic evaluation of cellular amastigote burdens. Percentage reduction compared to the burden in the infected non-treated control wells was used as a measure for drug activity.
Alternatively, differentiated macrophage host cells derived from THP-1 (human leukemia monocytes) were infected at a multiplicity of infection of 1:2.5 (ratio of host cells to parasites) with L. donovani MHOM/IN/80/DD8 culture-maintained promastigotes. L. donovani MHOM/IN/80/DD8 (ATCC 50212) promastigote parasites and THP-1 (ATCC TIB202) cells were maintained as previously described ([20]). A drug incubation period of 96 h was applied, plates fixed with 4% paraformaldehyde and stained with SYBR® green and CellMask Deep Red™ (ThermoFisher Scientific). Images were acquired on an Opera high-content imaging system (PerkinElmer). Healthy host (THP-1) cells and intracellular amastigotes were identified using CellMask Deep Red cytoplasmic and SYBR green nuclear area and intensities, with intracellular parasites identified based on spot detection algorithms (size and intensity measurements used to define parasite nucleus) to determine the number of parasites present within THP-1 host cells. An infected cell was defined as a host cell containing >3 parasites within the cytoplasm boundary. Compound activity was determined based on the number of infected cells normalized to the positive (10μM DNDI-1044) and negative (0.4% DMSO) controls. Non-linear sigmoidal dose-response curves with no constraints were plotted, and IC50 was calculated. The IC50s were calculated from two independent experiments.

[1] = system: L5178Y mouse lymphoma cells; assay: In vitro mutation assay at the TK locus; type: cell-based; settings: absence or presence of rat liver S9
Procedure: Two independent mutation tests were carried out: one in which cells were treated for 3 h in the presence of rat liver S9 mix and with […] as a positive control, and a second treated for 24 h in the absence of S9 mix and with […] as a positive control. In both cases, DMSO was used as the negative control. In accordance with current guidelines ICH S2(R1), 2011 ([41]) mutant frequency was counted at concentrations where solubility was not a limiting factor and cytotoxicity was not observed.

[2] = Binding to liver microsomes; type: in vitro ADME; settings: pH 7.4; human liver microsomes 1 mg/mL; read-out: Microsome fraction unbound
Procedure: Dialysis was conducted for 6 h and parallel non-dialyzed samples were included to confirm the absence of compound degradation. Binding to hepatocytes (at a cell density of 1 x 10^6 cells/mL) was calculated from the measured microsomal binding (at 1 mg/mL) as described previously ([26]). The fraction unbound (fu) was determined from the ratio of the dialysate to the donor concentration, assuming that the system was at steady state at the end of the dialysis period. For plasma, the data were corrected for the dilution factor to give a binding value for neat plasma according to previously published methods ([27]).

[3] = In vitro cytotoxicity assay; type: cell-based; settings: human, MRC-5 human fetal lung fibroblasts
L. infantum [4] = assay: Chronic hamster infection model (VL); type: in vivo, golden hamsters
Text: Female golden hamsters (5 per treatment group) were infected through intracardiac administration of 2x10^7 L. infantum amastigotes obtained from the spleen of a heavily infected donor hamster. […] After 5-day treatment period, followed by a 10-day wash out period, animals were sacrificed, and parasites burden assessed in the three target organs (liver, spleen, and bone-marrow). For this assessment, organs of individual animals were weighed, except for bone-marrow thus only providing a semi-quantitative evaluation only. Impression smears were Giemsa-stained for microscopic evaluation of amastigote burden, expressed as LDU (= mean number of amastigotes/cell × organ weight in mg) and the results were expressed as a percentage reduction compared to the burdens in the control group (vehicle as placebo). For evaluating the presence of viable residual burden after treatment, a promastigote back-transformation assay was conducted. This consisted of the incubation at ambient temperature of aseptically collected pieces of spleen or liver tissue in 1 mL of promastigote back-transformation medium in 24-well plates. For the bone-marrow, resected femurs were flushed with 1 mL medium. The medium consists of HOMEM pH 6.0 prepared as described elsewhere ([5]) with 10% fetal bovine serum (Gibco), 2.5% penicillin/streptomycin and 1% gentamicin (Merck). […]

[5] = Exploratory 14-day rat toxicology study
Text: Parameters monitored included morbidity/mortality, clinical signs, body weight, food consumption, hematology and serum clinical chemistry. Main study animals were killed on the day after the last dose and necropsied. Selected organs were weighed. Organ/tissue samples were fixed and preserved at necropsy. Following the macroscopic examination, selected organs/tissues were examined histopathologically and compared to the control group. Satellite animals were sampled for toxicokinetics on days 1 and 14, at various time-points after treatment.

[6] = system: Salmonella typhimurium strains TA1535, TA1537, TA98 and TA100, and Escherichia coli WP2 uvrA (pKM101); assay: Ames test; type: cell-based; settings: absence or presence of rat liver S9
Procedure: Salmonella typhimurium strains TA1535, TA1537, TA98 and TA100, and Escherichia coli WP2 uvrA (pKM101) were employed. Positive controls were respectively sodium azide (2 μg/plate), 9-amino acridine (50 μg/plate), 2-nitrofluorene (1 μg/plate), sodium azide (2 μg/plate) and 4-nitroquinoline-1-oxide (2 μg/plate). The negative control was DMSO.

[7] = In vitro cytotoxicity assay; type: cell-based; settings: human, U2OS human osteosarcoma cells
[8] = In vitro cytotoxicity assay; type: cell-based; settings: mouse, 3T3 mouse embryo fibroblasts
CHO-K1 cells = assay: In vitro micronucleus assay; type: cell-based; settings: absence or presence of rat liver S9
Procedure: The treatment time was 24 h without metabolic activation (rat liver S9) and 3 h with activation. The positive controls were bleomycin sulfate and cyclophosphamide, respectively.

L. infantum [9] = assay: PK/PD analysis of liver burden versus cumulative unbound AUC; type: in vivo, mice; settings: Mouse – L. infantum; estimated using the fitted parameters
Text: To determine the correlation between the pharmacokinetic (PK) and pharmacodynamic (PD) data, repeat dose profiles in mice and hamsters following single and twice daily dosing were simulated using the fitted parameters.
Other parameters were less well correlated to efficacy, presumably given that none reflect the cumulative exposure profile with an extended treatment regimen. […] Results for mice infected with L. donovani were similar to those for L. infantum (Table S15).

[10] = In vitro cytotoxicity assay; type: cell-based; settings: human, THP1 human monocytic leukaemia cells
[11] = L. donovani MHOM/ NP/2003/ BPK282/0-cl4
[12] = L. donovani MHOM/ET/2007/LLM-1600
[13] = L. donovani MHOM/NP/03/BPK275/0-cl18

Chain of CaV1.2 (Q13936 whole entry): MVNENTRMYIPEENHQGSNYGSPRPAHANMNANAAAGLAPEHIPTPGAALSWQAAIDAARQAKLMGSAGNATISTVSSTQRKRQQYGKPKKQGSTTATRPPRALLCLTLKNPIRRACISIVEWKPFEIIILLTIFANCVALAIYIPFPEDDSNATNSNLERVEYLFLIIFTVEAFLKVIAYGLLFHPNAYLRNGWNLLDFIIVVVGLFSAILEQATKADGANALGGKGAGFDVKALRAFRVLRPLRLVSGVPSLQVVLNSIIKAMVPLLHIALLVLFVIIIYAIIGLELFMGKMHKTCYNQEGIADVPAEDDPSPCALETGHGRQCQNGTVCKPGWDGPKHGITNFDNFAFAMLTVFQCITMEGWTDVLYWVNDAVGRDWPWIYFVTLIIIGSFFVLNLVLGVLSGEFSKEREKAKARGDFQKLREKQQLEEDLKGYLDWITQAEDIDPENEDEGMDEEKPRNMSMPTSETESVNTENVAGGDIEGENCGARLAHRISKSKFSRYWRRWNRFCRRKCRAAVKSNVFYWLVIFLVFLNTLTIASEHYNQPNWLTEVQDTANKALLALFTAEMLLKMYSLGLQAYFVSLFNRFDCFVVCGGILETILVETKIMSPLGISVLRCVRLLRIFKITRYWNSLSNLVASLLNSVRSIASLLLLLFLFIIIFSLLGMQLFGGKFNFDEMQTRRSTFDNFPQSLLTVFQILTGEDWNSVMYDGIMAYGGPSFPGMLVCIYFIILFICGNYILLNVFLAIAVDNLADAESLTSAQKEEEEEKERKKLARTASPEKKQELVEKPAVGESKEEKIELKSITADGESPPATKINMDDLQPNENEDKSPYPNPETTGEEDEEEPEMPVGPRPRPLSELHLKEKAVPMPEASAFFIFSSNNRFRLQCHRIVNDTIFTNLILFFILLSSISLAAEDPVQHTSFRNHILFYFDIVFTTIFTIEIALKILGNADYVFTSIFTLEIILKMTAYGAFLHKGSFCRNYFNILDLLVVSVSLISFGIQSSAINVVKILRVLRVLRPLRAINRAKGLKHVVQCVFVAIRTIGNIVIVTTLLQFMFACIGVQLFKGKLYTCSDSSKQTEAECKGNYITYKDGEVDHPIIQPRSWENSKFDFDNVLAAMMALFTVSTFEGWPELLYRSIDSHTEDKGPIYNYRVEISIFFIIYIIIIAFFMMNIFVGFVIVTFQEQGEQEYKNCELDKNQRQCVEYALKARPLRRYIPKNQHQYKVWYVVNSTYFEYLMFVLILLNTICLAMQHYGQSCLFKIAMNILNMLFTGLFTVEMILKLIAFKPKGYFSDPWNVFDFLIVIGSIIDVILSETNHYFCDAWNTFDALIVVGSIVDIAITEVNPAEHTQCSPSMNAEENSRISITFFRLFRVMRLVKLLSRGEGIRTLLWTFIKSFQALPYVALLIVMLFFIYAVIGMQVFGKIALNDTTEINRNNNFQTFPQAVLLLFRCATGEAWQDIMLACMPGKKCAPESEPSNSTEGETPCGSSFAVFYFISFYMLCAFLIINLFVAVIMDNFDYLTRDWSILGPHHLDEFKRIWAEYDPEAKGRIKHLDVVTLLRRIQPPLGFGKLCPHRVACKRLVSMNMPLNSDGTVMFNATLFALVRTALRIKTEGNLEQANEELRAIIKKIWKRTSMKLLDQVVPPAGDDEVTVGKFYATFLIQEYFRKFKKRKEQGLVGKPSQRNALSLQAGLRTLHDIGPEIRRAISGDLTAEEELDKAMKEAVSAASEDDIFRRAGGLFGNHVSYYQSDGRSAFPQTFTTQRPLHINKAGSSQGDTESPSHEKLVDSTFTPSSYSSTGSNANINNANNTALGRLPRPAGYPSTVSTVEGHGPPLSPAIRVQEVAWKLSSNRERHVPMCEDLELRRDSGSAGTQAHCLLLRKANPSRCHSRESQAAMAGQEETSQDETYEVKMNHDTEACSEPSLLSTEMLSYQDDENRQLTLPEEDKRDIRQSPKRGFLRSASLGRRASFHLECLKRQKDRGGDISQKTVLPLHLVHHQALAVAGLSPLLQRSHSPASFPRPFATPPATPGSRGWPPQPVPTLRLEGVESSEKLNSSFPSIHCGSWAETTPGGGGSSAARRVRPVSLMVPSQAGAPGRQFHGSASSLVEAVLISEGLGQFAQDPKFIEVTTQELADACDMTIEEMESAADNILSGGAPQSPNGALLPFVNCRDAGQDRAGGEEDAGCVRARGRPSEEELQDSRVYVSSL
Chain of CaV1.2 (Q08289 whole entry partner): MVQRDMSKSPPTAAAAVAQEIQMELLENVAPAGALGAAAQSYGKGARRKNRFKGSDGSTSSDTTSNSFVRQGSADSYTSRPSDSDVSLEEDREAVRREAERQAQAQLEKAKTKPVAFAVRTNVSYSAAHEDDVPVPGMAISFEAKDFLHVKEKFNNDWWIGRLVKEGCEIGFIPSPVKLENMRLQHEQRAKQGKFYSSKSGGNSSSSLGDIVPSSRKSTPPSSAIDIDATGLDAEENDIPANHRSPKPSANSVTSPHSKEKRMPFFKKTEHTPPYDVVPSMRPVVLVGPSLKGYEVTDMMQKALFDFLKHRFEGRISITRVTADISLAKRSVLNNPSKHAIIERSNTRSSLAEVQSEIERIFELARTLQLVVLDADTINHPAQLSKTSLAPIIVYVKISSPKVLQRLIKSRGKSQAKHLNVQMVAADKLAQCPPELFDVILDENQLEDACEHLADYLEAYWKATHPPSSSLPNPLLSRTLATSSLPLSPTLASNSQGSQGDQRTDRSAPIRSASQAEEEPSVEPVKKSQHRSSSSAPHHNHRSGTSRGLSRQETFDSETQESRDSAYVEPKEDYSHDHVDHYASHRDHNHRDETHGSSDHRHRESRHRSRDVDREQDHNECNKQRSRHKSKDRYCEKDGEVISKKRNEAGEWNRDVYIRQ

Cc1[nH]c2nc(N)nc(C)c2c1-c1ccc(C#N)c2c1OCO2 [DNDI-6174]
inhibition at 100 µM (CaV1.2): 43% | pEC50 (L. donovani; [11]): 7.30 | EC90 (L. donovani; [11]): 140 nM | pEC50 (L. donovani; L. donovani MHOM/ET/67/HU3): 7.05 | EC90 (L. donovani; L. donovani MHOM/ET/67/HU3): 2000 nM | pEC50 (L. donovani; [12]): 7.10 | EC90 (L. donovani; [12]): 280 nM | pEC50 (L. donovani; L. donovani MHOM/IN/80/DD8): 6.77 | EC90 (L. donovani; L. donovani MHOM/IN/80/DD8): 490 nM | pEC50 (L. donovani; [13]): 7.40 | EC90 (L. donovani; [13]): 120 nM | genotoxicity, in words [1]: not genotoxic | fraction unbound at 6 h, 0.5 µM [2]: 0.51 | CC50 [3]: > 64000 nM | minimum efficacious daily dose (L. infantum [4]; given qd for 5 days): 12.5 mg/kg | reduction of the parasite burden (L. infantum [4]; once daily dosing at and above 12.5 mg/kg, liver, spleen and bone-marrow): more than 99% | tolerability, in words ([5]; 200 mg/kg): early sacrifice of one female on day 5 | body weight decrease ([5]; 200 mg/kg, males): > 10% | tolerability, in words ([5]; 30 and 80 mg/kg oral): no mortality or morbidity | mutagenic potential (AMES), in words [6]: did not show intrinsic mutagenic potential | CC50 [7]: > 80000 nM | CC50 [8]: > 37000 nM | genotoxicity, in words (CHO-K1 cells): not genotoxic | unbound ED95 (L. infantum [9]): 27 | CC50 [10]: > 50000 nM
